Tests used:
[1] = system: transgenic (Gsα overexpressing) and control mice; test: M-mode echocardiography and ECG during graded intravenous infusion of sympathomimetic amines in anesthetized mice
[2] = system: transgenic (Gsα overexpressing) and wild-type control mice; test: Left ventricular contractility (LV dP/dt) by Millar micromanometer with heart rate held constant by pacing
mice = conditions: chronic administration; cited from earlier work
rats = conditions: infusion for several weeks; cited from earlier work
[3] = TG mice, norepinephrine infusion 0.05 μg/kg/min
[4] = TG mice, norepinephrine infusion 0.1 μg/kg/min
[5] = TG mice, norepinephrine infusion 0.2 μg/kg/min
[6] = TG mice, norepinephrine infusion 0.2 μg/kg/min, listed as Norepinephrine
[7] = control mice, norepinephrine infusion 0.1 μg/kg/min
[8] = control mice, norepinephrine infusion 0.2 μg/kg/min
[9] = control mice, norepinephrine infusion 0.2 μg/kg/min, listed as Norepinephrine
[10] = control mice, norepinephrine infusion 0.4 μg/kg/min
[11] = TG mice, isoproterenol infusion 0.005 μg/kg/min
[12] = TG mice, isoproterenol infusion 0.01 μg/kg/min
[13] = TG mice, isoproterenol infusion 0.02 μg/kg/min
[14] = TG mice, isoproterenol infusion 0.02 μg/kg/min, listed as Isoproterenol
[15] = control mice, isoproterenol infusion 0.01 μg/kg/min
[16] = control mice, isoproterenol infusion 0.02 μg/kg/min
[17] = control mice, isoproterenol infusion 0.02 μg/kg/min, listed as Isoproterenol
[18] = control mice, isoproterenol infusion 0.04 μg/kg/min

## NC[C@H](O)c1ccc(O)c(O)c1 [norepinephrine]
[1]; [3]
  Ejection Fraction: 79.8 ± 4.0%
  Fractional Shortening: 41.9 ± 3.9%
  Heart Rate: 320 ± 13 beats/min
  LVID end-diastole: 3.6 ± 0.1 mm
  LVID end-systole: 2.1 ± 0.1 mm
[1]; [4]
  Ejection Fraction: 88.3 ± 3.8%
  Fractional Shortening: 52.2 ± 4.8%
  Heart Rate: 322 ± 16 beats/min
  LVID end-diastole: 3.6 ± 0.2 mm
  LVID end-systole: 1.7 ± 0.2 mm
[1]; [5]
  Ejection Fraction: 93±2%
  Fractional Shortening: 59±4%
  Heart Rate: 341 ± 18 beats/min
  LVID end-diastole: 3.6 mm
  LVID end-systole: 1.5 ± 0.2 mm
[1]; [6]
  Ejection Fraction: 92.8 ± 2.1%
  Fractional Shortening: 59.4 ± 4.1%
[1]; [7]
  Ejection Fraction: 78.3 ± 0.1%
  Fractional Shortening: 39.9 ± 0.5%
  Heart Rate: 241 ± 27 beats/min
  LVID end-diastole: 4.0 ± 0.1 mm
  LVID end-systole: 2.4 ± 0.1 mm
[1]; [8]
  Ejection Fraction: 85±3%
  Fractional Shortening: 47±3%
  Heart Rate: 252 ± 33 beats/min
  LVID end-diastole: 4.1 ± 0.1 mm
  LVID end-systole: 2.2 mm
[1]; [9]
  Ejection Fraction: 84.8%
  Fractional Shortening: 47.0%
[1]; [10]
  Ejection Fraction: 92.3 ± 2.0%
  Fractional Shortening: 58.2 ± 3.9%
  Heart Rate: 272 ± 44 beats/min
  LVID end-diastole: 4.0 ± 0.1 mm
  LVID end-systole: 1.7 ± 0.2 mm
[1]; norepinephrine infusion, either group (control or transgenic)
  Chronotropic effect: no significant chronotropic effect
[1]; norepinephrine infusion, transgenic or control group
  Effect on left ventricular end-diastolic dimensions: no effect
[2]; transgenic mice, heart rate held constant (8.3±1.2 Hz), norepinephrine 0.1 μg/kg/min
  Increase of left ventricular contractility (LV dP/dt) from baseline: 65±8%
[2]; wild-type control mice, heart rate held constant (6.0±0.0 Hz), norepinephrine 0.1 μg/kg/min, baseline 7292±461 mm Hg/sec
  Increase of left ventricular contractility (LV dP/dt) from baseline: 28±4%

## CC(C)NCC(O)c1ccc(O)c(O)c1 (centres unmarked) [isoproterenol]
[1]; [11]
  Ejection Fraction: 80.6 ± 3.2%
  Fractional Shortening: 42.5 ± 3.2%
  Heart Rate: 369 ± 12 beats/min
  LVID end-diastole: 3.5 ± 0.3 mm
  LVID end-systole: 2.0 ± 0.1 mm
[1]; [12]
  Ejection Fraction: 89.5 ± 2.6%
  Fractional Shortening: 53.5 ± 3.5%
  Heart Rate: 389 ± 10 beats/min
  LVID end-diastole: 3.4 ± 0.2 mm
  LVID end-systole: 1.6 ± 0.1 mm
[1]; [13]
  Ejection Fraction: 96±1%
  Fractional Shortening: 68±4%
  Heart Rate: 433 beats/min
  LVID end-diastole: 3.1 mm
  LVID end-systole: 1.0 ± 0.1 mm
[1]; [14]
  Ejection Fraction: 96.3 ± 1.3%
  Fractional Shortening: 67.9 ± 4.2%
[1]; [15]
  Ejection Fraction: 76.7 ± 1.2%
  Fractional Shortening: 38.5 ± 1.1%
  Heart Rate: 213 ± 16 beats/min
  LVID end-diastole: 4.0 ± 0.1 mm
  LVID end-systole: 2.4 ± 0.0 mm
[1]; [16]
  Ejection Fraction: 86±3%
  Fractional Shortening: 48±3%
  Heart Rate: 236 ± 8 beats/min
  LVID end-diastole: 3.9 ± 0.1 mm
  LVID end-systole: 2.0 mm
[1]; [17]
  Ejection Fraction: 85.8%
  Fractional Shortening: 48.3%
[1]; [18]
  Ejection Fraction: 94.1 ± 2.0%
  Fractional Shortening: 62.8 ± 5.7%
  Heart Rate: 289 beats/min
  LVID end-diastole: 3.6 ± 0.1 mm
  LVID end-systole: 1.3 ± 0.2 mm
[1]; increasing doses of isoproterenol, both groups
  Left ventricular end-diastolic dimensions: decreased dose-dependently
mice
  Hypertrophic response: enhanced hypertrophic responses
[2]; transgenic mice, heart rate held constant (9.0-0.6 Hz), isoproterenol 0.02 μg/kg/min
  Increase of left ventricular contractility (LV dP/dt) from baseline: 33±2%
[2]; wild-type control mice, heart rate held constant (8.0±0.0 Hz), isoproterenol 0.02 μg/kg/min, baseline 6923±281 mm Hg/sec
  Increase of left ventricular contractility (LV dP/dt) from baseline: 13±2%
rats
  Myocardial pathology: myocardial hypertrophy with cellular necrosis and replacement fibrosis

— patent US6333447A, “Transgenic model of heart failure” (The General Hospital Corporation, priority 1996, dated 2001)
